# Article PMC6645336 (ACS Omega, 2018)
# Where “and” joins values, the source holds several entries; their conditions need not be identical. Equal values may be shown once. Read-outs that look alike come from different tables or passages of the source.
# Assays:
# [1] = cited from earlier work
# [2] = Phase 1: chemical distribution from whole milk into milk fat and skim milk; format: physicochemical, cow; settings: for distribution into milk fat, percent of total amount added: mean of all doses; for ratio of concentration in milk fat to initial concentration in whole milk / ratio of concentration in skim milk to initial concentration in whole milk: mean of dose means
# [3] = Phase 2: chemical distribution from skim milk into curd and whey; format: physicochemical, cow; settings: for concentration ratio of 0% moisture curd to whey: dry matter basis; for Curd Fraction % Dose: phase 2, based on skim milk; for curd/whey concentration ratio: curd as obtained (70% moisture)
# [4] = cited from earlier work; for log P / log D (pH 7.4): discussion compounds, Table S4
# [5] = cited from earlier work; remark: listed apart in the source
# [6] = Literature reports of residue distribution in milk products; design: species or system cow; settings: 15% of whole milk in their study, 10% in ours; from ref 18 data
# [7] = cited from earlier work; remark: listed apart in the source
compound,measurement,setting,value
"Clc1cc2c(cc1Cl)Oc1cc(Cl)c(Cl)cc1O2 [2,3,7,8-TCDD]","residues in cream exceeding those in milk, factor","[1]; lactating dairy cows, medium heavy cream",about 10
"Oc1c(Cl)cc2c(c1Cl)Oc1cc(Cl)c(Cl)cc1O2 [2-OH-1378-TCDD, 2-hydroxy-1,3,7,8-tetrachlorodibenzo-p-dioxin]",reduction in milk fat distribution by hydroxylation,[2]; 2-OH-1378-TCDD compared with 1278-TCDD,~30%
same,"distribution into milk fat, percent of total amount added",[2],54%
same,ratio of concentration in milk fat to initial concentration in whole milk,[2],11.2
same,greater distribution into whey compared to the unsubstituted analogue,"[3]; 2-OH-1378-TCDD vs 1278-TCDD, 3′-MeSO2-PCB-101 vs PCB-118",~30%
same,percent of whole milk chemical distributed to whey,[3]; based on whole milk,About 25%
same,concentration ratio of 0% moisture curd to whey,[3]; mean of doses,18
same,"chemical distributed into whey, percent of chemical in skim milk",[3]; mean of doses,35–60%
same,"chemical retained in the curd fraction, percent of chemical in skim milk",[3]; mean of doses,40–60%
"Clc1cc2c(cc1Cl)Oc1c(ccc(Cl)c1Cl)O2 [1278-TCDD, 1,2,7,8-tetrachlorodibenzo-p-dioxin]","distribution into milk fat, percent of total amount added",[2],> 80%
same,ratio of concentration in milk fat to initial concentration in whole milk,[2],18–20 and 18.7
same,concentration ratio of 0% moisture curd to whey,[3]; mean of doses,115
same,"chemical retained in the curd fraction, percent of chemical in skim milk",[3]; mean of doses,~80%
"Brc1ccc(Oc2cc(Br)c(Br)cc2Br)c(Br)c1 [BDE-99, 2,2′,4,4′,5-pentabromodiphenyl ether]","distribution into milk fat, percent of total amount added",[2],> 80%
same,ratio of concentration in milk fat to initial concentration in whole milk,[2],18–20
same,concentration ratio of 0% moisture curd to whey,[3]; mean of doses,327
same,"chemical retained in the curd fraction, percent of chemical in skim milk",[3]; mean of doses,~80%
same,Curd Fraction % Dose,[3]; nominal 20 nM in whole milk,73%
same,Curd Fraction % Dose,[3]; nominal 200 nM in whole milk,80%
same,Curd Fraction % Dose,[3]; nominal 2000 nM in whole milk,92%
"CC(C)(c1ccc(O)cc1)c1ccc(O)cc1 [BPA, bisphenol A]","distribution into milk fat, percent of total amount added",[2],39%
same,curd/whey concentration ratio,[3]; mean of doses,29
same,concentration ratio of 0% moisture curd to whey,[3]; mean of doses,111
"Clc1ccc(C(c2ccc(Cl)cc2)C(Cl)(Cl)Cl)cc1 [DDT, dichlorodiphenyltrichloroethane]",log P,[4],5.92
same,log D (pH 7.4),[4],6.22
same,starting DDT degraded to DDE and DDD,[1]; during the manufacturing of cheese,27–53%
same,concentration in Swiss-type cheese relative to original whole milk,[1]; milk of dairy cows fed DDT,~8 times
same,cream/whole milk ratio,[1]; pasteurized milk,12
same,cream/whole milk ratio,[1]; raw milk,9.0
"C[C@]12CC[C@@H]3c4ccc(O)cc4CC[C@H]3[C@@H]1CCC2=O [E1, estrone]","distribution into milk fat, percent of total amount added",[2],74%
same,ratio of concentration in milk fat to initial concentration in whole milk,[2],15.8 and ~16
same,curd/whey concentration ratio,[3]; mean of doses,24
same,concentration ratio of 0% moisture curd to whey,[3]; mean of doses,104
"CC[C@H]1OC(=O)[C@H](C)[C@@H](O[C@H]2C[C@@](C)(OC)[C@@H](O)[C@H](C)O2)[C@H](C)[C@@H](O[C@@H]2O[C@H](C)C[C@H](N(C)C)[C@H]2O)[C@](C)(O)C[C@@H](C)C(=O)[C@H](C)[C@@H](O)[C@]1(C)O [ERY, erythromycin]",curd/whey concentration ratio,[5],2.4
"O=C(O)CNCP(=O)(O)O [GLY, glyphosate]","distribution into milk fat, percent of total amount added",[2],0.95%
same,ratio of concentration in milk fat to initial concentration in whole milk,[2],0.2
same,ratio of concentration in skim milk to initial concentration in whole milk,[2],~1
same,curd/whey concentration ratio,[3]; mean of doses,1.4
same,concentration ratio of 0% moisture curd to whey,[3]; mean of doses,2.5
same,"chemical retained in the curd fraction, percent of chemical in skim milk",[3]; mean of doses,approximately 16.5%
"O=[N+]([O-])NC1=NCCN1Cc1ccc(Cl)nc1 [IMI, imidacloprid]","distribution into milk fat, percent of total amount added",[2],2.5%
same,ratio of concentration in skim milk to initial concentration in whole milk,[2],~1
same,curd/whey concentration ratio,[3]; mean of doses,2.4
same,concentration ratio of 0% moisture curd to whey,[3]; mean of doses,9.2
same,"chemical retained in the curd fraction, percent of chemical in skim milk",[3]; mean of doses,23.7%
"CN(C)[C@@H]1C(O)=C(C(N)=O)C(=O)[C@@]2(O)C(O)=C3C(=O)c4c(O)cccc4[C@@](C)(O)[C@H]3[C@H](O)[C@@H]12 [OTET, oxytetracycline]",curd/whey concentration ratio,[5],1.4
"Clc1ccc(-c2cc(Cl)c(Cl)cc2Cl)cc1Cl [PCB-118, 2,3′,4,4′,5-pentachlorobiphenyl]","distribution into milk fat, percent of total amount added",[2],> 80%
same,ratio of concentration in milk fat to initial concentration in whole milk,[2],18–20 and 19.5
same,concentration ratio of 0% moisture curd to whey,[3]; mean of doses,136
same,"chemical retained in the curd fraction, percent of chemical in skim milk",[3]; mean of doses,~80%
"CC1(C)S[C@@H]2[C@H](NC(=O)Cc3ccccc3)C(=O)N2[C@H]1C(=O)O [PENG, penicillin G]",curd/whey concentration ratio,[5],1.2
"CS(=O)(=O)c1ccc([C@@H](O)[C@@H](CO)NC(=O)C(Cl)Cl)cc1 [TAP, thiamphenicol]",curd/whey concentration ratio,[5],1.3
"O=C(Nc1ccc(Cl)cc1)Nc1ccc(Cl)c(Cl)c1 [TCC, triclocarban]","distribution into milk fat, percent of total amount added",[2],> 80% and 85%
same,ratio of concentration in milk fat to initial concentration in whole milk,[2],18–20 and 17.6
same,concentration ratio of 0% moisture curd to whey,[3]; mean of doses,46
same,"chemical distributed into whey, percent of chemical in skim milk",[3]; mean of doses,35–60%
same,"chemical retained in the curd fraction, percent of chemical in skim milk",[3]; mean of doses,40–60%
same,percent of skim milk chemical in 0% moisture curd,[3]; mean of doses,57%
"CC(=O)Nc1ccc(O)cc1 [TYL, acetaminophen]",curd/whey concentration ratio,[5],1.5
CNP(=O)(OC)Oc1ccc(C(C)(C)C)cc1Cl (stereo not shown) [cruformate],log P,[4],3.33
same,concentration into cream adjusted to reflect lipid mass yield,[6],~7.6 fold
same,concentration into cream relative to whole milk,[1]; fed to cows,fivefold
same,curd/whey concentration ratio,[1]; starting milk concentration 0.07 ppm,22
same,curd/whey concentration ratio,[1]; starting milk concentration 0.16 ppm,31
ClC1=C(Cl)C2(Cl)C3C4CC(C5OC45)C3C1(Cl)C2(Cl)Cl (stereo not shown) [endrin],log P,[4],4.9
same,log D (pH 7.4),[4],4.9
same,curd/whey concentration ratio,[1],91
COP(=S)(OC)Oc1ccc(SC)c(C)c1 [fenthion],log P,[4],3.21
same,concentration ratio of fat/whole milk,[1],~5
same,percent found in the fat fractions,[1],80–90%
ClC1=C(Cl)C2(Cl)C3C(Cl)C=CC3C1(Cl)C2(Cl)Cl (stereo not shown) [heptachlor],log P,[4],5.46
same,curd/whey concentration ratio,[1],22
"Cl[C@H]1[C@H](Cl)[C@@H](Cl)[C@@H](Cl)[C@H](Cl)[C@H]1Cl [lindane, 1,2,3,4,5,6-hexachlorcyclohexane]",log P,[4],3.99
same,concentration in curd relative to whey,[1],approximately 12 times
same,reduction by pasteurization,[1],65–73%
same,losses in Ras cheese,[1]; during 6 months in storage,36.7%
same,losses during refrigeration of yogurt,[1]; over 3 days,1.4–8%
ivermectin [IVR],"log P, parenthesis value","[4]; Table S1, value cited in the earlier paper",6.61
same,milk fat/whole milk concentration ratio,[7],18.4
